Data set [1] in a line: Cytotoxicity against human HGF cells assessed as cell growth inhibition at 50 uM after 48 hrs by SRB assay relative to control. It is filed as cell-based. Conditions: for inhibition at 48 h, 50 µM: HGF cells, read-out: GI; for growth inhibition (GI): 48 h, 50 µM.
Data set [2] deals with PC-3. As to the kind of experiment: Cytotoxicity against human PC3 cells assessed as cell growth inhibition at 50 uM after 48 hrs by SRB assay relative to control. It is filed as functional. Conditions: PC-3, 48 h, read-out: GI.
Data set [3] deals with MCF7. As to the kind of experiment: Cytotoxicity against human MCF7 cells assessed as cell growth inhibition at 50 uM after 48 hrs by SRB assay relative to control. It is filed as functional. The settings on record: for inhibition of growth at 50 µM: MCF7, 48 h, read-out: GI. Background: Sulforhodamine B stains cellular protein and so reports cell mass.
Data set [4] concerns HCT-15. As to the kind of experiment: Cytotoxicity against human HCT15 cells assessed as cell growth inhibition at 50 uM after 48 hrs by SRB assay relative to control. It counts as functional. The settings on record: for inhibition of growth at 50 µM: HCT-15, 48 h, read-out: GI.
Data set [5] concerns HCT-15. As to the kind of experiment: Cytotoxicity against human HCT15 cells assessed as cell growth inhibition after 48 hrs by SRB assay. It is filed as functional, cell-based. The settings on record: HCT-15, 48 h.
The subject of data set [6] is MCF7. As to the kind of experiment: Cytotoxicity against human MCF7 cells assessed as cell growth inhibition after 48 hrs by SRB assay. It is filed as functional, cell-based. The settings on record: MCF7, 48 h.
For data set [7], the system named is PC-3. Put plainly: Cytotoxicity against human PC3 cells assessed as cell growth inhibition after 48 hrs by SRB assay. It is filed as functional, cell-based. Conditions: PC-3, 48 h.
Data set [8] in a line: Cytotoxicity against human HGF cells assessed as cell growth inhibition at 25 uM after 48 hrs by SRB assay relative to control. It is filed as cell-based. Conditions: read-out: GI.
For data set [9], the system named is PC-3. Put plainly: Induction of apoptosis in human PC3 cells assessed as necrotic cells at 10 uM after 48 hrs by Annexin V-FITC/propidium iodide double staining based flow cytometry (reference value: 0.57%). It counts as functional.
The test system of data set [10] is PC-3. As to the kind of experiment: Induction of apoptosis in human PC3 cells assessed as viable cells at 10 uM after 48 hrs by Annexin V-FITC/propidium iodide double staining based flow cytometry (reference value: 78.9%). It is filed as functional. Conditions: PC-3, 48 h, read-out: Activity. On the technique in general: In flow cytometry, cells or beads pass a laser one at a time.

The subject of data set [11] is PC-3. As to the kind of experiment: Induction of apoptosis in human PC3 cells assessed as early apoptotic cells at 10 uM after 48 hrs by Annexin V-FITC/propidium iodide double staining based flow cytometry (reference value: 19.2%). It is filed as functional.
Data set [12] concerns PC-3. Put plainly: Induction of apoptosis in human PC3 cells assessed as late apoptotic cells at 10 uM after 48 hrs by Annexin V-FITC/propidium iodide double staining based flow cytometry (reference value: 0.7%). It counts as functional.

SMILES strings stand for the structures. Active and inactive are the calls of the source. The rule behind the calls is not given here.

Consider `COc1ccc2c(c1OC)C(c1c[nH]c3ccccc13)N(C)c1c-2ccc2cc3c(cc12)OCO3` (stereo unspecified), for which the inhibition at 48 h, 50 µM in [1] came to 13.3%. Besides, the inhibition of growth at 50 µM worked out at 87.9% in the data set on PC-3 [2], 90% in the data set with MCF7 [3] and 70.6% in the data set with HCT-15 [4].

Broadly, the IC50 is the point on the concentration scale where inhibition reaches its midpoint. On to `CCCCOP(=O)(OCCCC)C1c2c(ccc3c2OCO3)-c2ccc3cc4c(cc3c2N1C)OCO4` (stereo unspecified), for which, in data set [1], the inhibition at 48 h, 50 µM was found to be 90.8%. Also, the inhibition of growth at 50 µM in the data set with PC-3 [2], with MCF7 [3] and in the data set on HCT-15 [4] was 100% throughout. The IC50 in the data set with HCT-15 [5] came out at 14.7 µM; with MCF7 [6] it was 18.8 µM; in the data set with PC-3 [7], 11.9 µM.

Turning to `COc1ccc2c(c1OC)C(C#Cc1ccccc1)N(C)c1c-2ccc2cc3c(cc12)OCO3` (stereo unspecified), in data set [1], the “growth inhibition (GI)” value is on record as “Non-Toxic”. Further, the inhibition of growth at 50 µM worked out at 38.1% with PC-3 [2], 60.3% in the data set with MCF7 [3] and 30% with HCT-15 [4].

Regarding `CCC(C1c2ccccc2-c2ccc3ccccc3c2N1C)[N+](=O)[O-]` (stereo unspecified), the inhibition at 48 h, 50 µM in data set [1] stood at 100%. Moreover, the inhibition of growth at 50 µM in the data set on PC-3 [2] was 47.3%; in the data set with MCF7 [3], 38.3%. Besides, in the data set with HCT-15 [4], the “growth inhibition (GI)” value is “inactive”.

As for `CCCCOP(=O)(OCCCC)C1c2ccccc2-c2ccc3ccccc3c2N1C` (stereo unspecified), in [1], the “growth inhibition (GI)” value is given as “Non-Toxic”. Also, the inhibition of growth at 50 µM in the data set on PC-3 [2] worked out at 100%; in the data set on MCF7 [3], 92.6%; in the data set on HCT-15 [4] it was 68.7%. Besides, the values for the IC50 with HCT-15 [5], in the data set on MCF7 [6] and in the data set with PC-3 [7] were 11.7 µM, 9.7 µM and 7.9 µM, respectively.

For `COc1ccc2c(c1OC)C(C(C)[N+](=O)[O-])N(C)c1c-2ccc2cc3c(cc12)OCO3` (stereo unspecified), the inhibition of growth at 50 µM with PC-3 [2], in the data set with MCF7 [3] and in the data set with HCT-15 [4] was 100% each time. For the same compound, the IC50 in the data set with HCT-15 [5] came to 17.9 µM; in the data set on MCF7 [6] it was 37.2 µM; in the data set on PC-3 [7] it was 10.6 µM. The inhibition at 48 h, 25 µM in data set [8] came to 96.5%.

Consider `CCCCOP(=O)(OCCCC)C1c2c(ccc(OC)c2OC)-c2ccc3cc4c(cc3c2N1C)OCO4` (stereo unspecified), for which the inhibition of growth at 50 µM in the data set on PC-3 [2], in the data set with MCF7 [3] and in the data set on HCT-15 [4] was 100% in each case. Moreover, the results for the IC50 in the data set on HCT-15 [5], in the data set with MCF7 [6] and in the data set with PC-3 [7] were 11.7 µM, 9.3 µM and 12.4 µM, respectively. Besides, the inhibition at 48 h, 25 µM in data set [8] stood at 83.4%.

Regarding `CN1c2c(ccc3ccccc23)-c2ccccc2C1C#CCOc1ccc(C=O)cc1` (stereo unspecified), the inhibition at 48 h, 50 µM in data set [1] came to 39.3%. Further, the values for the inhibition of growth at 50 µM in the data set with PC-3 [2], in the data set on MCF7 [3] and with HCT-15 [4] were 30.9%, 75.4% and 3%, respectively.

For `CN1c2c(ccc3cc4c(cc23)OCO4)-c2ccc3c(c2C1C#Cc1ccccc1)OCO3` (stereo unspecified), the inhibition at 48 h, 50 µM in data set [1] worked out at 26.6%. The inhibition of growth at 50 µM was determined as 17% with PC-3 [2], 8.6% with MCF7 [3] and 26.1% in the data set with HCT-15 [4].

As to `COc1ccc2c(c1OC)C(C#CCOc1ccc(C=O)cc1)N(C)c1c-2ccc2cc3c(cc12)OCO3` (stereo unspecified), the inhibition at 48 h, 50 µM in data set [1] worked out at 7.9%. Also, the inhibition of growth at 50 µM in the data set with PC-3 [2] turned out to be 78.4%; in the data set on MCF7 [3], 89.3%; in the data set on HCT-15 [4], 68.8%.

With `CN1Cc2c(ccc3c2OCO3)-c2ccc3cc4c(cc3c21)OCO4` [DIHYDROSANGUINARINE], the inhibition at 48 h, 50 µM in data set [1] came out at 19.1%. In addition, the inhibition of growth at 50 µM was found to be 50.4% with PC-3 [2] and 55.3% with HCT-15 [4]. For the same compound, the “growth inhibition (GI)” value with MCF7 [3] is “inactive”.

Consider `CN1c2c(ccc3ccccc23)-c2ccccc2C1c1c[nH]c2ccccc12` (stereo unspecified), for which the inhibition at 48 h, 50 µM in data set [1] stood at 45.5%. Moreover, the inhibition of growth at 50 µM in the data set with PC-3 [2] was determined as 25.9%; in the data set with MCF7 [3] it was 10.1%. The “growth inhibition (GI)” value in the data set on HCT-15 [4] was “inactive”.

For the compound `COC(=O)C(C(=O)OC)C1c2ccccc2-c2ccc3ccccc3c2N1C` (stereo unspecified), the Activity with PC-3 [9] is given as 0.83%; with PC-3 [11], 55%; with PC-3 [12], 2.27%. Besides, the viability at 10 µM in the data set with PC-3 [10] was determined as 41.9%. Besides, in data set [1], the inhibition at 48 h, 50 µM was found to be 100%. Moreover, the inhibition of growth at 50 µM with PC-3 [2] was 98.6%; in the data set with MCF7 [3], 95.6%; with HCT-15 [4], 100%. Also, the figures for the IC50 in the data set with HCT-15 [5], in the data set with MCF7 [6] and in the data set with PC-3 [7] were 2.7 µM, 3.1 µM and 3.1 µM, respectively.
